The values that follow come from PubChem BioAssay AID328 (DTP/NCI, 2004).

Each structure is given as a SMILES string. Values joined by “and” are separate entries in the source; they are usually repeats but may differ in a detail not shown here. Equal entries are not always repeated. Inconclusive results and toxic doses are left out.

The test system of the assay is BDF1 mice, P388 leukemia ip, median survival T/C. In words: NCI In Vivo Anticancer Drug Screen. Data for tumor model P388 Leukemia (intraperitoneal) in B6D2F1 (BDF1) mice. The following applies: endpoint: median survival time, higher = longer survival. Summed up:
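T/C = treated-group survival ÷ vehicle-control survival; tumour transplanted into mice before dosing.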

The mark [1] stands for this setting: dose: 100.0 mg/kg/injection, schedule: Q04DX003 (ip), vehicle: Klucel (hydroxypropylcellulose) (HPC).
[2] abbreviates: dose: 200.0 mg/kg/injection, schedule: Q04DX003 (ip), vehicle: Klucel (hydroxypropylcellulose) (HPC).
[3] abbreviates: dose: 400.0 mg/kg/injection, schedule: Q01DX009 (ip), vehicle: saline with Tween-80.
Setting [4] is: dose: 1.56 mg/kg/injection, schedule: Q01DX009 (ip), vehicle: Klucel (hydroxypropylcellulose) (HPC).
[5] abbreviates: dose: 3.13 mg/kg/injection, schedule: Q01DX009 (ip), vehicle: Klucel (hydroxypropylcellulose) (HPC).
The mark [6] stands for this setting: dose: 6.25 mg/kg/injection, schedule: Q01DX009 (ip), vehicle: Klucel (hydroxypropylcellulose) (HPC).
Setting [7] is: dose: 50.0 mg/kg/injection, schedule: Q04DX003 (ip), vehicle: Klucel (hydroxypropylcellulose) (HPC).
The mark [8] stands for this setting: dose: 50.0 mg/kg/injection, schedule: Q01DX009 (ip), vehicle: saline with Tween-80.
The mark [9] stands for this setting: dose: 100.0 mg/kg/injection, schedule: Q01DX009 (ip), vehicle: saline with Tween-80.
The mark [10] stands for this setting: dose: 200.0 mg/kg/injection, schedule: Q01DX009 (ip), vehicle: saline with Tween-80.
Where [11] appears, read: dose: 25.0 mg/kg/injection, schedule: Q01DX009 (ip), vehicle: saline with Tween-80.
Setting [12] is: dose: 25.0 mg/kg/injection, schedule: Q04DX003 (ip), vehicle: Klucel (hydroxypropylcellulose) (HPC).
[13] abbreviates: dose: 100.0 mg/kg/injection, schedule: Q04DX003 (ip), vehicle: saline.

On to `CCOC(=O)C(C(=O)OCC)=C(C)C`, for which the T/C is 100 % of control under setting [1]; 88 % of control under setting [2]; 150 % of control under setting [3]; 103 % of control (dose: 400.0 mg/kg/injection, schedule: Q04DX003 (ip), vehicle: Klucel (hydroxypropylcellulose) (HPC)).
Regarding `Cc1cc(C)nc(NS(=O)(=O)c2ccc(N=Nc3nc4[nH]c(N)nc(=S)c4[nH]3)cc2)n1`, the T/C runs as follows: under setting [4], 113 % of control; under setting [5], 117 % of control; under setting [6], 112 % of control and 113 % of control; under setting [7], 116 % of control; under setting [1], 108 % of control; under setting [2], 104 % of control.
In the case of `CC1(C)C2CCC1(C)C1(C2)OC(CCl)CS1` (centres undefined), the T/C runs as follows: under setting [8], 90 % of control; under setting [9], 94 % of control; under setting [10], 108 % of control.
In the case of `CCN(CC)CCNC1=CC(=S)NC(C)(C)C1`, the T/C under setting [11] was 101 % of control; the T/C under setting [8] was 89 % of control and 111 % of control; the T/C under setting [9] was 100 % of control; the T/C under setting [10] was 88 % of control and 117 % of control.
As for `NC1=NC(=S)C2N=C(N=Nc3ccc(C(=O)NC(CCC(=O)O)C(=O)O)cc3)N=C2N1` (centres undefined), the T/C is, setting by setting: under setting [4], 120 % of control; under setting [5], 91 % of control; under setting [6], 87 % of control; under setting [12], 120 % of control; under setting [7], 112 % of control.
Consider `OC(CN1CC1)c1ccccc1` (centres undefined), for which the T/C reads like this: (dose: 20.0 mg/kg/injection, schedule: Q04DX003 (ip), vehicle: saline) 90 % of control; (dose: 40.0 mg/kg/injection, schedule: Q04DX003 (ip), vehicle: saline) 95 % of control; (dose: 80.0 mg/kg/injection, schedule: Q04DX003 (ip), vehicle: saline) 100 % of control.
With `CCN(/C=C/C=C(C#N)C#N)CC`, the T/C under setting [8] was 109 % of control and the T/C under setting [9] is 88 % of control.
Turning to `CCNc1ncc([N+](=O)[O-])c(Nc2ccccc2)n1`, the T/C under setting [8] is 103 % of control, the T/C under setting [9] is 103 % of control and the T/C under setting [10] is 88 % of control.
As to `O=C1C(Cl)=C(Cl)C(=O)C2=C1C1c3ccccc3C2c2ccccc21`, the T/C was 115 % of control (dose: 100.0 mg/kg/injection, schedule: Q01DX009 (ip), vehicle: Klucel (hydroxypropylcellulose) (HPC)); 120 % of control (dose: 200.0 mg/kg/injection, schedule: Q01DX009 (ip), vehicle: Klucel (hydroxypropylcellulose) (HPC)); 109 % of control (dose: 200.0 mg/kg/injection, schedule: Q04DX003 (ip), vehicle: saline sonified); 105 % of control (dose: 400.0 mg/kg/injection, schedule: Q01DX009 (ip), vehicle: Klucel (hydroxypropylcellulose) (HPC)); 104 % of control (dose: 400.0 mg/kg/injection, schedule: Q04DX003 (ip), vehicle: saline sonified).
Consider `CN(c1ccccc1)S(=O)(=O)c1ccccc1`, for which the T/C (dose: 100.0 mg/kg/injection, schedule: Q04DX003 (ip), vehicle: saline with Tween-80) is 95 % of control.
In the case of `O=C1OC(COCC#Cc2ccccc2)CN1c1ccccc1` (centres undefined), the T/C is 104 % of control under setting [9]; 92 % of control under setting [13]; 100 % of control under setting [10]; 107 % of control (dose: 200.0 mg/kg/injection, schedule: Q04DX003 (ip), vehicle: saline); 100 % of control under setting [3]; 92 % of control (dose: 400.0 mg/kg/injection, schedule: Q04DX003 (ip), vehicle: saline).
Take `O=c1nc(Oc2ccccc2)nc2ccc(Cl)nn12`: the T/C under setting [8] is 105 % of control and the T/C under setting [9] was 116 % of control.
Consider `O=C1C=CC(=O)N1CO`, for which the T/C is 100 % of control (dose: 0.62 mg/kg/injection, schedule: Q04DX003 (ip), vehicle: saline); 109 % of control (dose: 1.25 mg/kg/injection, schedule: Q01DX009 (ip), vehicle: saline); 95 % of control (dose: 1.25 mg/kg/injection, schedule: Q04DX003 (ip), vehicle: saline); 118 % of control (dose: 2.5 mg/kg/injection, schedule: Q01DX009 (ip), vehicle: saline); 90 % of control (dose: 2.5 mg/kg/injection, schedule: Q04DX003 (ip), vehicle: saline); 100 % of control (dose: 3.6 mg/kg/injection, schedule: Q04DX003 (ip), vehicle: saline). Also, the T/C (dose: 5.6 mg/kg/injection, schedule: Q04DX003 (ip), vehicle: saline) was 104 % of control and the T/C (dose: 8.4 mg/kg/injection, schedule: Q04DX003 (ip), vehicle: saline) was 104 % of control.
`CC(=O)Nc1ccc(S(=O)(=O)N(CCO)c2ccccc2)cc1`: the T/C (dose: 12.5 mg/kg/injection, schedule: Q01DX009 (ip), vehicle: saline with Tween-80) is 104 % of control; the T/C (dose: 12.5 mg/kg/injection, schedule: Q04DX003 (ip), vehicle: Klucel (hydroxypropylcellulose) (HPC)) is 100 % of control; the T/C under setting [11] was 104 % of control; the T/C under setting [12] is 109 % of control; the T/C under setting [8] is 96 % of control; the T/C under setting [7] was 109 % of control. The T/C under setting [2] was 87 % of control.
Regarding `C=CCN(CC=C)CC=C`, the T/C reads like this: (dose: 25.0 mg/kg/injection, schedule: Q04DX003 (ip), vehicle: saline) 111 % of control; (dose: 50.0 mg/kg/injection, schedule: Q04DX003 (ip), vehicle: saline) 108 % of control; under setting [13], 111 % of control.
As for `O=c1[nH]c(Cl)ncc1F`, the T/C was 100 % of control (dose: 67.0 mg/kg/injection, schedule: Q01DX009 (ip), vehicle: saline with Tween-80); 113 % of control (dose: 75.0 mg/kg/injection, schedule: Q04DX003 (ip), vehicle: saline with Tween-80); 103 % of control under setting [9]; 107 % of control (dose: 150.0 mg/kg/injection, schedule: Q01DX009 (ip), vehicle: saline with Tween-80); 100 % of control (dose: 150.0 mg/kg/injection, schedule: Q04DX003 (ip), vehicle: saline with Tween-80); 111 % of control (dose: 225.0 mg/kg/injection, schedule: Q01DX009 (ip), vehicle: saline with Tween-80). For the setting “dose: 300.0 mg/kg/injection, schedule: Q04DX003 (ip), vehicle: saline with Tween-80”, the T/C is 86 % of control.
`Cc1cc(O)c(C(c2ccc(Cl)cc2)c2c(O)cc(C)[nH]c2=O)c(=O)[nH]1`: the T/C by setting is: under setting [8], 108 % of control; under setting [9], 108 % of control; under setting [10], 105 % of control.
As to `Cc1ccc(OCc2c(COc3ccc(Cl)cc3)sc3ccc(Cl)cc23)cc1`, the T/C (dose: 12.5 mg/kg/injection, schedule: Q04DX003 (ip), vehicle: saline with Tween-80) was 95 % of control and the T/C (dose: 25.0 mg/kg/injection, schedule: Q04DX003 (ip), vehicle: saline with Tween-80) was 87 % of control.
